Measurements published in US20250154611A1, “SYSTEMS AND METHODS TO DETECT STEM CELL STRESS AND USES THEREOF” (Wayne State University, priority 2014, published 2025).
Several values for one entry are separate records, joined by “and”; a condition that tells them apart may be missing. Equal values may be shown once.

What was measured:
Rex1-RFP mESCs = assay: Flow cytometry of Rex1-RFP reporter mESCs (bright, intermediate, dim subpopulations); type: cell-based, mouse; conditions: 3 days; for Bright subpopulation / Dim subpopulation / Intermediate + Dim / Intermediate subpopulation: LIF+
Description: . Rex1-RFP mESCs expressing Rex1 promoter reporter were cultured in 12-well plates until 30% confluent, treated with 0 mM, 200 mM, and 300 mM sorbitol for 3 days, trypsinized, and cell suspensions were assayed by flow cytometry. Arbitrary thresholds (vertical red lines) were drawn at 5×10^3 on the X-axis between the middle of the two peaks and at 2 standard deviations above the mean of the parental (before infection) dim population shown in the bottom panel. Areas in parental dim, intermediate dim, and bright were defined by the 2 vertical red lines and were quantified as pixels using Image J from data in (FIG. 25A) to give histograms in (FIG. 25B).
FIGS. 26A and 26B. Viable Rex1 promoter reporter responds with stress treatment in a dose-dependent manner in flow cytometry assay. mESCs expressing Rex1 promoter reporter were cultured in 12-well plates till 30% confluence. Cells were then treated with 200-300 mM of sorbitol in 25 mM increments for 3 days. After trypsinization, the cell suspensions were subjected for flow cytometry assay. An arbitrary threshold was drawn at 5×10^3 on the x-axis and another near the low point between the bright peak and the dimmer peak to its left (FIG. 26A). […] Intermediate and bright groups were also defined by the two vertical red lines. Area sizes of the two peaks were quantified using Image J. The histogram bars (FIG. 26B) are derived by three independent experiments, one of which is shown in (FIG. 26A), errors bars showing s.e.m., One-way ANOVA was performed followed by Dunnett's post hoc test using 0 mM as reference for parental dim, intermediate dim, and bright separately.
Flow cytometric analysis of mESCs expressing pluripotency reporters. Fluorescence determination by the plate reader reported an averaged biochemical result from a population of cells inside the tissue culture vessel. […] This time point was designated as time zero. The cells were then treated with different sorbitol concentrations for 1-3 days. At each time point, cells were trypsinized and re-suspended in ice-cold D-PBS for flow cytometry assay using an LSR Fortessa flow cytometer (BD biosciences) and the FACS Diva Software version 7.0 (BD biosciences). Non-stressed mESCs that express Oct4-copGFP and/or Rex1-mApple and the non-modified, parental mESCs were used to set up the parameters that define the fluorescent cells and non-fluorescent cells.
From the histogram of FACS, two peaks are seen. The right peak represents the bright fluorescent potent ESCs. The left peak represents the dim fluorescent non-potent ESCs. An arbitrary vertical line is drawn here at the 5×10^3 position on the PE-A axis to separate the low potency ESCs. The peak areas were calculated using Image J by counting the area pixels.

Rex1-RFP ESCs = assay: Cell counts and doubling rate of Rex1-RFP ESCs at time zero and 3 days of sorbitol; type: cell-based, mouse; conditions: 72 hr; for Doubling Rate: 0 mM 32.7 hr; for Relative Cell# (Total #, OUTSIDE BOX): time zero = 100, 0 mM = 460
Text: FIG. 28. Partial validation of the Theory of Compensatory Differentiation whereby stress decreases in size the normal levels of stem cell expansion and, in the nonmorbid stress range where doubling rates were near-normal, the diminished potency group that is enabled to differentiate is constant in size. […] A modified Venn diagram from previous modeling is presented here and analyzed with respect to supporting flow cytometry data for changes in potency subpopulation sizes derived from Table 8 and discussed in the text. For convenience, Table 8 is reproduced here:
Finally it was tested whether endogenous Rex1 protein levels decreased commensurately with decreases in Rex1-RFP activity levels assayed in FIG. 24. Rex1-RFP ESCs were cultured for 3 days with 0-300 mM sorbitol and assayed by immunoblot for endogenous Rex1 levels normalized to ACTB loading controls and with time zero unstressed Rex1 set to 100 as a baseline level. Whereas stress-induced decrease in Rex1 activity in FIG. 24 were 20% and 70% at 200 mM and 300 mM sorbitol, respectively endogenous Rex1 protein losses were 30% and 70% at 200 mM and 300 mM, respectively (FIG. 27). Through the series from 200 mM to 300 mM sorbitol there was generally good agreement between activity level and endogenous protein level for Rex1 at 3 days of stress and with Rex1 protein loss at 1 day (Example 2). To correlate stress-induced Rex1 potency loss with stress-induced diminished cell growth rates, cell counts were performed at time zero and at 3 days over the same sorbitol dose range as in FIG. 27 and FIG. 24 and FIGS. 26A & 26B. […]; see Brief Description of the Figures for Table 8).
The stress dose-dependent cell number of low potency cells can be determined by multiplying the fractional subpopulation size of cells with potency loss, which increases with stress and the decreasing cell numbers with increasing stress. This was done in Table 8 and compared with a previously published Venn diagram for compensatory differentiation (Puscheck, 2015, MB; Rappolee, 2013), modified to produce FIG. 28. In the stress-dose range where population size decreases, but increasing doubling rate is in a manageable range, the absolute size of the subpopulation of potency loss (intermediate and very low dim cells) is remarkably the same. At stress doses where very large doubling rate increases occur the subpopulation number with potency loss decreases, probably due to stem cell morbidity at these higher hyperosmotic stress levels (Example 2). Thus all three lines of evidence summarized here are consistent with the theory, but with limitations.

## OC[C@@H](O)[C@@H](O)[C@H](O)[C@@H](O)CO [sorbitol]
Rex1-RFP mESCs; 0 to 300 mM
  decrease in high activity Rex1 subpopulation: 20%
  decrease in the bright group: 21.5%
  increase in parental dim ESCs: 15.8%
  increase in the low Rex1 activity subpopulation: 2.8 fold
  total change toward intensity decrease: 40.4 % of cells
Rex1-RFP mESCs; 200 mM
  Bright subpopulation: 77.1%
  Dim subpopulation: 12.2%
  Intermediate + Dim: 22.9%
  Intermediate subpopulation: 10.7%
Rex1-RFP mESCs; 225 mM
  Bright subpopulation: 75.6%
  Dim subpopulation: 13.7%
  Intermediate + Dim: 24.4%
  Intermediate subpopulation: 10.7%
Rex1-RFP mESCs; 250 mM
  Bright subpopulation: 72%
  Dim subpopulation: 16.6%
  Intermediate + Dim: 28%
  Intermediate subpopulation: 11.4%
Rex1-RFP mESCs; 275 mM
  Bright subpopulation: 71.9%
  Dim subpopulation: 17.1%
  Intermediate + Dim: 28.1%
  Intermediate subpopulation: 11%
Rex1-RFP mESCs; 300 mM
  Bright subpopulation: 61.8+/−3.7%
  Dim subpopulation: 24.4+/−2.9%
  Intermediate + Dim: 28.1%
  Intermediate subpopulation: 13.8+/−2.1%
Rex1-RFP mESCs; 300 mM, listed as Sorbitol
  Bright subpopulation: 61.8%
  Dim subpopulation: 24.4%
  Intermediate subpopulation: 13.8%
Rex1-RFP mESCs; to 300 mM
  increase in intermediate dim ESCs: 3.1%
Rex1-RFP ESCs; 200 mM
  % Dim + Intermediate × Cell# (INSIDE BOX cell number): 9893
  Doubling Rate: 34.1 h
  Relative Cell# (Total #, OUTSIDE BOX): 432
Rex1-RFP ESCs; 225 mM
  % Dim + Intermediate × Cell# (INSIDE BOX cell number): 9930
  Doubling Rate: 35.6 h
  Relative Cell# (Total #, OUTSIDE BOX): 407
Rex1-RFP ESCs; 250 mM
  % Dim + Intermediate × Cell# (INSIDE BOX cell number): 9968
  Doubling Rate: 39.3 h
  Relative Cell# (Total #, OUTSIDE BOX): 356
Rex1-RFP ESCs; 275 mM
  % Dim + Intermediate × Cell# (INSIDE BOX cell number): 7418
  Doubling Rate: 51.4 h
Rex1-RFP ESCs; 300 mM
  % Dim + Intermediate × Cell# (INSIDE BOX cell number): 4540
  Doubling Rate: 103.4 h
  Relative Cell# (Total #, OUTSIDE BOX): 161 and 162
Rex1-RFP ESCs; 200-250 mM range
  cell doubling rates: 34.1 to 39.3 h
Rex1-RFP ESCs; 275-300 mM
  cell doubling rates: 51.4 to 103.4 h
